For the experiment, the system named is L1210 leukemia ip in BDF1 mice, survival T/C. Put plainly: NCI In Vivo Anticancer Drug Screen. Data for tumor model L1210 Leukemia (intraperitoneal) in B6D2F1 (BDF1) mice. As to conditions: endpoint: mean survival time, higher = longer survival. Summed up: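 Each compound was tested against a transplantable tumor grown in mice. The endpoint was survival, with treated animals benchmarked against vehicle controls as a simple ratio.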

[1] abbreviates: dose: 100.0 mg/kg/injection, schedule: Q01DX009 (ip), vehicle: Klucel (hydroxypropylcellulose) (HPC).
The mark [2] stands for this setting: dose: 50.0 mg/kg/injection, schedule: Q01DX009 (ip), vehicle: saline.
The mark [3] stands for this setting: dose: 100.0 mg/kg/injection, schedule: Q01DX009 (ip), vehicle: saline.
The mark [4] stands for this setting: dose: 50.0 mg/kg/injection, schedule: Q01DX009 (ip), vehicle: saline with Tween-80.
Setting [5] is: dose: 100.0 mg/kg/injection, schedule: Q04DX003 (ip), vehicle: saline with Tween-80.
The mark [6] stands for this setting: dose: 100.0 mg/kg/injection, schedule: Q01DX001 (ip), vehicle: saline.
Where [7] appears, read: dose: 200.0 mg/kg/injection, schedule: Q01DX001 (ip), vehicle: saline.
[8] abbreviates: dose: 400.0 mg/kg/injection, schedule: Q01DX001 (ip), vehicle: saline.
Setting [9] is: dose: 150.0 mg/kg/injection, schedule: Q01DX001 (ip), vehicle: saline.
Where [10] appears, read: dose: 200.0 mg/kg/injection, schedule: Q04DX003 (ip), vehicle: saline with Tween-80.
Setting [11] is: dose: 400.0 mg/kg/injection, schedule: Q04DX003 (ip), vehicle: saline with Tween-80.

SMILES strings stand for the structures. “And” between values parts separate entries of the source, which are not always exact repeats. Equal entries are not always repeated. Inconclusive results and toxic doses are left out.

On to `CC(=O)N(C(C)C)C(C)C`, for which the T/C is, setting by setting: (dose: 0.75 mg/kg/injection, schedule: Q01DX001 (ip), vehicle: saline with Tween-80) 100 % of control; (dose: 1.5 mg/kg/injection, schedule: Q01DX001 (ip), vehicle: saline with Tween-80) 97 % of control; (dose: 3.0 mg/kg/injection, schedule: Q01DX001 (ip), vehicle: saline with Tween-80) 102 % of control; (dose: 3.12 mg/kg/injection, schedule: Q01DX001 (ip), vehicle: saline with Tween-80) 98 % of control; (dose: 12.5 mg/kg/injection, schedule: Q01DX001 (ip), vehicle: saline with Tween-80) 100 % of control.
As for `CC(C)(O)C(Cl)S(=O)c1ccccc1` (stereo not given), the T/C is, setting by setting: (dose: 75.0 mg/kg/injection, schedule: Q03DX002 (ip), vehicle: saline with Tween-80) 113 % of control; (dose: 300.0 mg/kg/injection, schedule: Q03DX002 (ip), vehicle: saline with Tween-80) 117 % of control.
On to `CC(=O)N(C)c1ccc(NC(=O)Nc2cc(C(F)(F)F)ccc2Cl)cc1`, for which the T/C is, setting by setting: under setting [1], 96 % of control; (dose: 200.0 mg/kg/injection, schedule: Q01DX009 (ip), vehicle: Klucel (hydroxypropylcellulose) (HPC)) 94 % of control; (dose: 400.0 mg/kg/injection, schedule: Q01DX009 (ip), vehicle: Klucel (hydroxypropylcellulose) (HPC)) 94 % of control.
`CC1(C)OCC(C2OC(=O)C(O)=C2O)O1` (stereo not given): the T/C runs as follows: under setting [2], 111 % of control; under setting [3], 92 % of control; (dose: 200.0 mg/kg/injection, schedule: Q01DX009 (ip), vehicle: saline) 101 % of control.
As for `S=C(N/N=C/c1ccccn1)N/N=C/c1ccccn1`, the T/C runs as follows: (dose: 20.0 mg/kg/injection, schedule: Q01DX009 (ip), vehicle: saline with Tween-80) 105 % of control; (dose: 33.0 mg/kg/injection, schedule: Q01DX009 (ip), vehicle: saline with Tween-80) 100 % of control; under setting [4], 152 % of control; under setting [5], 103 % of control.
Take `c1ccc2c(c1)-c1ccccc1-2`: the T/C is 97 % of control (dose: 50.0 mg/kg/injection, schedule: Q01DX001 (ip), vehicle: carboxymethylcellulose (CMC)); 97 % of control (dose: 100.0 mg/kg/injection, schedule: Q01DX001 (ip), vehicle: carboxymethylcellulose (CMC)); 97 % of control (dose: 200.0 mg/kg/injection, schedule: Q01DX001 (ip), vehicle: carboxymethylcellulose (CMC)); 103 % of control (dose: 400.0 mg/kg/injection, schedule: Q01DX001 (ip), vehicle: carboxymethylcellulose (CMC)).
`CC(=O)Nc1cccc(C(=O)O)c1O`: the T/C is, setting by setting: under setting [6], 100 % of control; under setting [7], 105 % of control; under setting [8], 100 % of control.
For `N#CCCS(=O)(=O)CCc1ccccc1`, the T/C was 96 % of control (dose: 75.0 mg/kg/injection, schedule: Q01DX009 (ip), vehicle: Klucel (hydroxypropylcellulose) (HPC)); 96 % of control (dose: 150.0 mg/kg/injection, schedule: Q01DX009 (ip), vehicle: Klucel (hydroxypropylcellulose) (HPC)); 105 % of control (dose: 300.0 mg/kg/injection, schedule: Q01DX009 (ip), vehicle: Klucel (hydroxypropylcellulose) (HPC)).
On to `S=C(Sc1ccc(Cl)cc1)Sc1ccc(Cl)cc1`, for which the T/C is 93 % of control under setting [6], 93 % of control under setting [7] and 90 % of control under setting [8].
For `F[Si](c1ccccc1)(c1ccccc1)c1ccccc1`, the T/C (dose: 37.5 mg/kg/injection, schedule: Q01DX009 (ip), vehicle: saline) is 88 % of control; the T/C (dose: 75.0 mg/kg/injection, schedule: Q01DX001 (ip), vehicle: saline) is 93 % of control; the T/C (dose: 75.0 mg/kg/injection, schedule: Q01DX009 (ip), vehicle: saline) was 95 % of control; the T/C under setting [9] is 102 % of control; the T/C (dose: 150.0 mg/kg/injection, schedule: Q01DX009 (ip), vehicle: saline) was 95 % of control; the T/C (dose: 300.0 mg/kg/injection, schedule: Q01DX001 (ip), vehicle: saline) was 93 % of control.
As for `O=C(Nc1ccc(NC(=O)c2ccc(C3=NCCN3)cc2)cc1)Nc1ccc(C2=NCCN2)cc1`, the T/C (dose: 6.25 mg/kg/injection, schedule: Q01DX Z (ip), vehicle: carboxymethylcellulose (CMC)) is 117 % of control; the T/C (dose: 25.0 mg/kg/injection, schedule: Q01DX Z (ip), vehicle: carboxymethylcellulose (CMC)) was 206 % of control; the T/C (dose: 50.0 mg/kg/injection, schedule: Q01DX Z (ip), vehicle: carboxymethylcellulose (CMC)) is 268 % of control; the T/C (dose: 62.0 mg/kg/injection, schedule: Q01DX Z (ip), vehicle: carboxymethylcellulose (CMC)) is 282 % of control; the T/C (dose: 62.0 mg/kg/injection, schedule: Q01DX Z (oral), vehicle: carboxymethylcellulose (CMC)) is 120 % of control; the T/C (dose: 100.0 mg/kg/injection, schedule: Q01DX Z (ip), vehicle: carboxymethylcellulose (CMC)) is 106 % of control. In addition, the T/C is, setting by setting: (dose: 125.0 mg/kg/injection, schedule: Q01DX Z (ip), vehicle: carboxymethylcellulose (CMC)) 214 % of control; (dose: 125.0 mg/kg/injection, schedule: Q01DX Z (oral), vehicle: carboxymethylcellulose (CMC)) 97 % of control; (dose: 150.0 mg/kg/injection, schedule: Q01DX Z (ip), vehicle: carboxymethylcellulose (CMC)) 94 % of control; (dose: 175.0 mg/kg/injection, schedule: Q01DX Z (ip), vehicle: carboxymethylcellulose (CMC)) 115 % of control; (dose: 250.0 mg/kg/injection, schedule: Q01DX Z (ip), vehicle: carboxymethylcellulose (CMC)) 109 % of control; (dose: 250.0 mg/kg/injection, schedule: Q01DX Z (oral), vehicle: carboxymethylcellulose (CMC)) 103 % of control. In addition, the T/C (dose: 300.0 mg/kg/injection, schedule: Q01DX Z (oral), vehicle: carboxymethylcellulose (CMC)) is 103 % of control.
As for `ONC12CCCCC1(Cl)CCCC2` (stereo not given), the T/C under setting [9] is 94 % of control.
In the case of `CC(=O)N(Cc1cccc([N+](=O)[O-])c1)c1ccc(C(=O)O)cc1`, the T/C was 98 % of control (dose: 100.0 mg/kg/injection, schedule: Q01DX001 (ip), vehicle: saline with Tween-80); 119 % of control (dose: 200.0 mg/kg/injection, schedule: Q01DX001 (ip), vehicle: saline with Tween-80); 93 % of control (dose: 400.0 mg/kg/injection, schedule: Q01DX001 (ip), vehicle: saline with Tween-80).
`CCCCCCCCCCCCCCCC(=O)OCCCCCCCCCC`: the T/C under setting [5] was 100 % of control, the T/C under setting [10] was 87 % of control and the T/C under setting [11] is 95 % of control.
For the compound `O=[N+]([O-])CC(O)c1ccccc1Cl` (stereo not given), the T/C was 95 % of control under setting [4] and 98 % of control (dose: 100.0 mg/kg/injection, schedule: Q01DX009 (ip), vehicle: saline with Tween-80).
On to `c1ccc2cc(CCc3cc4ccccc4cn3)ncc2c1`, for which the T/C was 105 % of control (dose: 100.0 mg/kg/injection, schedule: Q04DX003 (ip), vehicle: saline); 94 % of control (dose: 200.0 mg/kg/injection, schedule: Q04DX003 (ip), vehicle: saline); 87 % of control (dose: 400.0 mg/kg/injection, schedule: Q04DX003 (ip), vehicle: saline).
Consider `COc1ccc(OC)c(NC(=O)Sc2ccccc2O)c1`, for which the T/C is 100 % of control (dose: 25.0 mg/kg/injection, schedule: Q01DX009 (ip), vehicle: Klucel (hydroxypropylcellulose) (HPC)); 96 % of control (dose: 50.0 mg/kg/injection, schedule: Q01DX009 (ip), vehicle: Klucel (hydroxypropylcellulose) (HPC)); 99 % of control and 89 % of control under setting [1].
Turning to `Cc1ccc(S(=O)(=O)NC(=O)NCCCOC(C)C)cc1`, the T/C reads like this: under setting [5], 98 % of control; under setting [10], 94 % of control; under setting [11], 96 % of control.
For the compound `CCN(CC)CCOC(=S)Nc1ccccc1`, the T/C (dose: 25.0 mg/kg/injection, schedule: Q01DX009 (ip), vehicle: saline) is 100 % of control; the T/C under setting [2] was 109 % of control; the T/C under setting [3] was 96 % of control and 105 % of control.

Source of the values: PubChem BioAssay AID248 (DTP/NCI, 2004).
